Results published in patent publication US10821164B2, “Peptides for inducing Chagas disease responses” (SAINT LOUIS UNIVERSITY, priority 2015, dated 2020).

What was measured:
[1] = tested on: CD8^+ T cells; experiment: IFN-γ ELISPOT after vaccination of HLA-A2 transgenic mice with peptide-pulsed mature dendritic cells; format: cell-based, HLA-A2 HHDII transgenic mice; settings: splenic CD8+ T cells four weeks after second peptide-pool pulsed mDC vaccination; stimulated overnight with spleen cells pulsed with individual peptide 5 μg/ml; FIG. 2A
Source text: FIGS. 2A-C—Immunogenicity of predicted HLA-A2 restricted T. cruzi epitopes. HLA-A2 transgenic mice were vaccinated twice, two weeks apart with mature dendritic cells pulsed with functional TS (F-TS; FIG. 2A), Non-functional TS (NF-TS; FIG. 2B), or whole genome derived Non-TS peptide pools (FIG. 2C). One month later, CD8^+ T cells were isolated from control DC or peptide-pool pulsed DC vaccinated mice and stimulated overnight with APCs pulsed with individual F-TS, NF-TS, or Non-TS peptides in IFN-γ ELISPOT assays. Shown are mean±SE from representative experiments expressed as IFN-γ spot forming cells (SFC) per million CD8^+ T cells above DMSO control. Asterisks denote immunogenic peptides defined as responses greater than the mean+2 SE of all control CD8^+ T cell responses.
All animal studies were conducted in AAALAC accredited facilities and were approved by the Saint Louis University Institutional Animal Care and Use Committee. HLA-A2 HHDII transgenic mice were provided by Ted Hansen (Washington University) with permission from Marion Berard at the Institut Pasteur and were bred and housed under pathogen-free conditions throughout the inventors' studies (Pascolo et al., 1997). […]

[2] = tested on: T. cruzi; settings: children aged six to 12 years with chronic disease; cited from earlier work

Compound	IFN-γ spot forming cells (SFC) per million CD8^+ T cells above DMSO control [1]	cure rate [2]
EVYSLVFARL [F-TS-2]	5,000 IFN-γ SFC/million CD8^+ T cells	
O=C(Cn1ccnc1[N+](=O)[O-])NCc1ccccc1 [benznidazole]		about 60%
